Laboratory results published in US20080255134A1 (Artesian Therapeutics, Inc., priority 2004, published 2008).

Key:
[1] = tested on: isolated ventricular myocytes; assay: Sarcomere shortening (contractility) in isolated ventricular myocytes; assay type: cell-based, rabbit
Description: […] Isoproterenol, a potent β-Adrenergic agonist, can produce large increases in cardiac contraction, calcium transient amplitude, and the rates of relaxation (acceleration of relaxation or lusitropic effect). The effects of isoproterenol are then antagonized with different concentrations of a compound of the present invention.
Cardiac myocytes were digested from healthy white New Zealand male rabbits (3-5 lbs), with enzymatic digestion. Briefly, each animal is anesthetized with ketamine (50 mg/kg) and xylazine (6 mg/kg)-IM injection in hind limb. Once the animal was sedated (˜10-15 min), 0.1-0.3 ml of pentobarbital was injected into the ear vein. The heart was exposed by a cut just below the rib-cage and bilateral thoracotomy and removed rapidly ensuring that aorta remains intact. The heart was immediately placed in oxygenated NT with Ca^2+ placed on ice for rinsing the blood out, cleared from vessels and pericardium, cannulated and maintained at 37° C. The heart was retrogradedly perfused and tissue digested with collagenase and protease. Digested myocytes were subsequently stored in 0.1 mM Ca^2+ normal tyrodes for further analyses. Sarcomere length changes upon treatment with test compounds were recorded at 37° C. in the presence of 2 mM calcium and analyzed with an IonOptix system. Sarcomere length data was acquired for each myocyte over an average of 10 beats duration, at pacing rates of 1, 2, and 3 Hz. Basal percent sarcomere shortening and length-frequency relation of each myocyte was evaluated, and serve as a measure of cellular viability.
In vitro studies were performed using rabbit ventricular tissue, to examine the effects of Compounds 25 and 8c on myocyte contractility. New Zealand male rabbits (1.5-2.5 kg) were anesthetized with ketamine (50 mg/kg) and xylazine (6 mg/kg)-IM. The heart was exposed and removed rapidly to ensure that the aorta remained intact. The ventricular tissue was digested enzymatically. Sarcomere shortening was measured in the presence of 2 mM calcium at 37° C. using an IonOptix system; reported values were at 2 Hz pacing frequency.

[2] = molecular target: T1, human recombinant beta-2 receptors (Homo sapiens, UniProt P07550); assay: β2-receptor radioligand binding, [125I] iodocyanopindolol, CHO-WT21 cells
T1 construct: expressed in transfected cells; host or cells: CHO-WT21 cells
Description: (§1) Non-selective β-adrenergic and β1-adrenergic radioligand binding assays were performed using rat cortical membranes; β2-adrenergic receptor assays were performed using membranes isolated from CHO cells expressing human, recombinant b2-adrenergic receptor; non-selective α1-adrenergic receptor assays were performed using rat forebrain membranes; and PDE3 binding assays were performed on human platelets. Values in percent illustrate percent inhibition at 1000 nM concentration.

[3] = molecular target: α1-adrenergic receptor; assay: Non-selective α1-adrenergic receptor assay using rat forebrain membranes; assay type: binding
Description: as §1, with “The ability of Compounds 25 and 8c to inhibit PDE3 and β-adrenergic receptor activity was examined both in vitro and in vivo. […] Non-selective” for “Non-selective”

[4] = molecular target: beta-receptors from rat cortical membranes; assay: Non-specific β-receptor radioligand binding, [3H]DHA; details: read-out: Non-selective β-adrenergic IC50
Description: as §1

T1 sequence (P07550 whole entry): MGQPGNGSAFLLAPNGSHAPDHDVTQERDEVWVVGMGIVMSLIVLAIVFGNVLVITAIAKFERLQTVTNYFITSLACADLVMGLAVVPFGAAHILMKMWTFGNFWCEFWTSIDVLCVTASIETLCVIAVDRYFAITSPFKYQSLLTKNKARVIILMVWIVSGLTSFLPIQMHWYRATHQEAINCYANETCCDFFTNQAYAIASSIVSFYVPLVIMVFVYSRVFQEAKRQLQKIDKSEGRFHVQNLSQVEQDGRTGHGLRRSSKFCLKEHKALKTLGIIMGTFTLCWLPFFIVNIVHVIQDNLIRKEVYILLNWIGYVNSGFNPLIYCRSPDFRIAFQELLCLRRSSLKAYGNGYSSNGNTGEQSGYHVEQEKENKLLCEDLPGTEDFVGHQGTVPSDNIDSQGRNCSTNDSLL

SMILES: O=C1CCC(c2ccc(OCCNCC(O)COc3cccc4[nH]c5ccccc5c34)c(Cl)c2)=NN1 (racemic) [Compound 25, 6-(4-{2-[3-(9H-Carbazol-4-yloxy)-2-hydroxy-propylamino]-ethoxy}-3-chloro-phenyl)-4,5-dihydro-2H-pyridazin-3-one]
- blocking of isoproterenol effect on myocyte contractility ([1]; 0.1 μM isoproterenol): blocking the effects of 0.1 μM isoproterenol
- contractility (sarcomere shortening) in isolated ventricular myocytes ([1]; 2 mM calcium, 37° C., 2 Hz pacing frequency): increased contractility
- inhibition at 0.1 µM ([2]; at 100 nM): > 25%
- IC50 ([2]; membranes from CHO cells expressing human recombinant β2-adrenergic receptor): 1 nM
- IC50 [3]: 349 nM
- IC50 [4]: 3 nM
